The numbers were not newly measured in US20110059171A1 (LABORATORIOS SENOSIAIN S.A. DE C.V., priority 2008, published 2011), which cites them from elsewhere.

Series [1] has as its system proteins.
For series [2] the following is noted: in vivo.

With `O=C(c1ccccc1)c1ccc2n1CCC2C(=O)O` (stereo not drawn) [Ketorolac], the bound to proteins entry in series [1] is “More than 99%”. Besides, the “excreted without any change in urine” value in series [2] is recorded as “about 90%”.

For the compound `O=C(c1ccccc1)c1ccc2n1CCC2C(=O)O` (racemic) [Ketorolac tromethamine, (+−)-5(benzoyl)-2,3-dihydro-1H-pyrrolizine-1-carboxylic acid tris (hydroxymethyl)methylamine], the water solubility result was “highly water-soluble”.
